System: Fire Ants
Experiment: Fire ant mound field tests of bait/borate formulations
Type: in vivo, Solenopsis invicta
Method: The following components were tested either alone or in combinations for their ability to attract Fire Ants: • 1. Cow manure dropping in an infested area; • 2. Pelletized cow manure; • 3. Milk; • 4. Powdered, fresh and pelletized whey; • 5. Sugar solutions of varying concentrations; • 6. Raw fruit and vegetables of various kinds and concentrates; • 7. Various soft drinks containing sugar; • 8. Bacon and other raw meats; • 9. Vegetable and animal oils, both in liquid or solid; • 10. Dog and cat foods in bags, cans, or packaged in some other manner; • 11. Corn or other vegetable products in the form of meal, syrup, cracked, particles and flakes and other particles; • 12. Wheat and rice as bleached and unbleached, flower or granules; • 13. Millet seeds whole and crushed; • 14. Sunflower seeds whole, crushed and with various vegetable oils added; • 15. Microcapsules of whey and other materials, made to hold various, foods, etc.; and • 16. Capsules made of various vegetable water, sugar, starches, proteins, etc. that contain the bait and/or borates and/or DE.
Mounds were selected of varying sizes measured in diameter: • 1. Small mound (1 inch to 6 inches) • 2. Medium mound (6 inches to 3.0 feet) • 3. Large mound (3.0 feet and larger) • 4. Control
When possible, isolated mounds were selected.
The formulations were tested individually at different sites: • 1. Standard was one level teaspoon for a small mound, two for a medium mound and three or more for a large mound; and • 2. Volume vs. weight was noted.
The following data was collected for each site: • 1. Location • 2. Data and time of application • 3. Observation are conducted at: • a. One hour; • b. Four hours; • c. Twelve hours; • d. One day; • e. Two days; • f. Four days; • g. Eight days; • h. Sixteen days; and • i. Intermittent observations based upon climatic conditions. • 4. Weather data collected include: • a. Temperature; • b. Humidity; • c. Rainfall (time of day and extent); and • d. Wind speed and direction • 5. General observations
The time of application is preferably near evening (5 p.m. or later) or early morning (5 a.m. to 9 a.m.).

Substance | degree of control (DOT combined with whey bait) | acceptance by the Fire Ants (incorporated with the baits tested) | acceptable formulation level for control into the second generation (preliminary data) | acceptable formulation level for first generation control (preliminary data) | performance (5% substituted for the DOT, with whey)
Disodium octoborate tetrahydrate [DOT] | high degree of control | readily accepted | ~1.0% | ~0.05 % of the formulation | 
calcium borate |  |  |  |  | superior performance
